Drawing on patent publication US5162335A, “Di- and tetrahydroisoquinoline derivatives” (Duphar International Research B.V., priority 1986, dated 1992), this text covers IC75 for nine compounds.

This test deals with human cell lines: breast MCF7 and HTB26, colon WIDR and HTB38, lung HTB53, melanoma HTB66, and uterus HTB114. Put plainly: Clonogenic assay with human cell lines (test 2). The conditions noted are these: treatment approximately three times the cell cycle, more particularly the D-enantiomers, read-out: ID75 in the clonogenic assay (test 2). The test is classed as cell-based. Here is the method:
2. CLONOGENIC ASSAY WITH HUMAN CELL LINES
The following human cell lines are used: breast MCF7 and HTB26, colon WIDR and HTB38, lung HTB53, melanoma HTB66, and uterus HTB114.
As comparative substances are used cisplatinum, 5-fluorouracil, daunomycine, bleomycine and adriamycine.
During providing the cells or after a pre-incubationperiod of one night, the compound to be tested is added as a solution or suspension in 0.5% CMC/saline solution in a dose range with a maximum concentration of 15 μg/ml.
The duration of the treatment is approximately three times the cell cycle. The cells are then fixed, coloured and evaluated for the presence of the colonies. The formation of colonies is expressed in the number of colonies which is present on the treated dishes as a perecentage of the number of colonies which is present on control dishes.
For the compound `COc1cc([C@H]2c3c(ccc4ccccc34)C[C@H]3COC(=O)N32)cc(OC)c1OC` (relative stereo) [Example 82], the IC75 was below 1 µg/mL. With `COc1cc(OC)c([C@H]2c3cc4c(cc3C[C@H]3COC(=O)N32)OCCO4)cc1OC` [Example 80], the IC75 is below 1 µg/mL. Then `COc1cc([C@H]2N[C@@H](CO)Cc3cc4c(cc32)OCCO4)cc(OC)c1OC` [Example 20], with below 1 µg/mL. For `COc1cc([C@H]2N[C@@H](CO)Cc3c2ccc2ccccc32)cc(OC)c1OC` (relative stereo) [Example 23], the IC75 is below 1 µg/mL.

Regarding `COc1cc([C@@H]2c3cc4c(cc3C[C@@H]3COS(=O)N32)OCO4)cc(OC)c1OC` (stereo partly drawn) [Example 55], the IC75 was below 1 µg/mL. Turning to `COc1cc([C@@H]2c3cc4c(cc3C[C@@H]3COC(=O)N32)OCCO4)cc(OC)c1OC` [Example 79], the IC75 was below 1 µg/mL. With `COc1cc([C@@H]2c3cc4c(cc3C[C@@H]3CN(C)[S+]([O-])N32)OCO4)cc(OC)c1OC` (stereo partly drawn) [Example 70], the IC75 was below 1 µg/mL.

As for `COc1cc([C@H]2N[C@@H](C(N)=O)Cc3cc4c(cc32)OCCO4)cc(OC)c1OC` [Example 110], the IC75 is below 1 µg/mL.

Turning to `COc1cc([C@H]2c3ccc4ccccc4c3C[C@H]3COC(=O)N32)cc(OC)c1OC` (relative stereo) [Example 81], the IC75 is below 1 µg/mL.
